{"source": "patent US8044052B2", "about": "“Biaryl ether urea compounds” (Pfizer Inc., priority 2006, dated 2011)", "note": "Structures can show the parent of a compound that is named as a salt.", "data": [{"biological_target": "T1, Human FAAH (Homo sapiens, UniProt O00519)", "T1 construct": "made in house", "T1 sequence (O00519 1-579)": "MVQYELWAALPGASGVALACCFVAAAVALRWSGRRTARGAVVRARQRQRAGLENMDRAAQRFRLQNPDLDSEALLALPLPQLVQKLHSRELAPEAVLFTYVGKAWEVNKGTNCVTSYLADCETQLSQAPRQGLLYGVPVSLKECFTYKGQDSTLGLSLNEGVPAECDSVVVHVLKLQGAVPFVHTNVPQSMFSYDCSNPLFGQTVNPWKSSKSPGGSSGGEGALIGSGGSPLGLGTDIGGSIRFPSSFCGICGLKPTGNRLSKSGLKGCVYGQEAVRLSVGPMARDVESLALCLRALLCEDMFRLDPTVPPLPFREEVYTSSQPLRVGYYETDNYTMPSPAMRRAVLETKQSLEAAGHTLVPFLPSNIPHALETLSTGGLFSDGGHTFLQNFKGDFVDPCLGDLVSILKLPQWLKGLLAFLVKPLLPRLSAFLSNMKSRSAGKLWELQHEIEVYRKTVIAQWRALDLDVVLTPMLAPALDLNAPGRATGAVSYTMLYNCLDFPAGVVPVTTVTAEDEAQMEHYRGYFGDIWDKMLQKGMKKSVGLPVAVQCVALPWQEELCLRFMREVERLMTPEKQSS", "assay": "FAAH assay (glutamate dehydrogenase-coupled, oleamide substrate, absorbance at 340 nm)", "assay_type": "biochemical", "settings": "irreversible inhibition, 1-4 nM FAAH, pH 7.4, 30° C., 90 min", "protocol": "(§1) The FAAH assay was carried out in 384-well clear polystyrene plates in a total volume of 50 μl per well. All percents are by volume. To each well, was placed the reaction mixture (40 μl) containing 1-4 nM FAAH, 50 mM NaPi, pH 7.4, 3 mM α-ketoglutarate, 0.15 mM NADH, 7.5 U/ml glutamate dehydrogenase, 2 mM ADP, 1 mM EDTA, and 0.1% Triton X-100 (The concentration shown for each component is the final concentration in the assay). […] This was immediately followed by the addition of 5 μl oleamide (500 μM) dissolved in 75% EtOH/25% DMSO and the reaction mixture was mixed for 1.5 min. The final concentrations of DMSO and EtOH in the assay were each 7.5%.\n(§2) Initial velocity data (V) were obtained from the slopes of the initial progressive curves. They were plotted as a function of substrate concentration and fit to the Michaelis-Menten equation (1) using Prism (GraphPad Software, Inc., San Diego, Calif.) software to obtain Km and Vmax values.\n(§3) To obtain potencies of irreversible inhibitors, progressive curves consistent with first order inhibition kinetics (two-step irreversible inhibition mechanism) were fit to equation (2) by nonlinear least squares regressions to determine kobs values at each inhibitor concentration, where [P]t is the absorbance at time t, V0 is a constant related to the steady state rate of the uninhibited reaction, and kobs is the first order rate constant for enzyme inactivation. The inhibitor dissociation constant (Ki) and the first order rate\n(§4) [formula] constant of enzyme inactivation at infinite inhibitor concentration (kinact) were then obtained by fitting the kobs vs. [I] curves to equation (3).", "units": {"hFAAH kinact/Ki": "M⁻¹ s⁻¹"}, "values": [{"smiles": "O=C(Nc1cccnc1)N1CCC(=Cc2cccc(Oc3ccc(C(F)(F)F)cc3)c2)CC1", "note": "[Example 53]", "hFAAH kinact/Ki": 4520}, {"smiles": "Cc1cnc(NC(=O)N2CCC(=Cc3cccc(Oc4ccc(C(F)(F)F)cn4)c3)CC2)cn1", "note": "[Example 22, N-(5-methyl-pyrazin-2-yll)-4-(3-{[5-(trifluoromethyl)pyridin-2-yl]oxy}benzylidene)piperidine-1-carboxamide]", "hFAAH kinact/Ki": 12000}]}, {"biological_target": "T1, Human FAAH", "assay": "FAAH assay (glutamate dehydrogenase-coupled, oleamide substrate, absorbance at 340 nm)", "assay_type": "biochemical", "settings": "irreversible inhibition, 1-4 nM FAAH, pH 7.4, 30° C., 90 min, read-out: hFAAH kinact/Ki", "protocol": "as §1, §2, §3, §4", "units": {"kinact/KI": "M⁻¹ s⁻¹"}, "values": [{"smiles": "Cc1noc(C)c1NC(=O)N1CCC(=Cc2cccc(Oc3ccc(C(F)(F)F)cn3)c2)CC1", "note": "[Example 133, N-(3,5-dimethylisoxazol-4-yl)-4-(3-{[5-(trifluoromethyl)pyridin-2-yl]oxy}benzylidene)piperidine-1-carboxamide]", "kinact/KI": 36.8}, {"smiles": "Cc1cc(C)nc(Oc2cccc(C=C3CCN(C(=O)Nc4cccnn4)CC3)c2)n1", "note": "[Example 120, 4-{3-[(4,6-dimethylpyrimidin-2-yl)oxy]benzylidene}-N-pyridazin-3-ylpiperidine-1-carboxamide]", "kinact/KI": "< 14.5"}, {"smiles": "N#Cc1ccc(NC(=O)N2CCC(=Cc3cccc(Oc4ccc(C(F)(F)F)cn4)c3)CC2)cn1", "note": "[Example 11, N-(6-cyanopyridin-3-yl)-4-(3-{[5-(trifluoromethyl)pyridin-2-yl]oxy}benzylidene)piperidine-1-carboxamide hydrochloride]", "kinact/KI": 4040}, {"smiles": "O=C(Nc1cccnc1)N1CCC(=Cc2cccc(Oc3ccc(N4CCC4)cn3)c2)CC1", "note": "[Example 88, 4-(3-(5-(azetidin-1-yl)pyridin-2-yloxy)benzylidene)-N-(pyridin-3-yl)piperidine-1-carboxamide]", "kinact/KI": 3580}, {"smiles": "COc1cc(Oc2cccc(C=C3CCN(C(=O)Nc4cccnn4)CC3)c2)ncn1", "note": "[Example 121, 4-{3-[(6-methoxypyrimidin-4-yl)oxy]benzylidene}-N-pyridazin-3-ylpiperidine-1-carboxamide]", "kinact/KI": 896}, {"smiles": "O=C(Nc1ncccc1O)N1CCC(=Cc2cccc(Oc3ccc(C(F)(F)F)cn3)c2)CC1", "note": "[Example 79, N-(3-hydroxypyridin-2-yl)-4-(3-{[5-(trifluoromethyl)pyridin-2-yl]oxy}benzylidene)piperidine-1-carboxamide trifluoroacetate]", "kinact/KI": 4880}, {"smiles": "Cc1cc(C(F)(F)F)cc(Oc2cccc(C=C3CCN(C(=O)Nc4cccnn4)CC3)c2)n1", "note": "[Example 116, 4-(3-{[6-methyl-4-(trifluoromethyl)pyridin-2-yl]oxy}benzylidene)-N-pyridazin-3-ylpiperidine-1-carboxamide]", "kinact/KI": 40.8}, {"smiles": "O=C(Nc1cccnc1)N1CCC(=Cc2cc(Br)cc(Oc3ccc(C(F)(F)F)cn3)c2)CC1", "note": "[Example 62, 4-(3-bromo-5-(5-(trifluoromethyl)pyridin-2-yloxy)benzylidene)-N-(pyridin-3-yl)piperidine-1-carboxamide]", "kinact/KI": 1370}, {"smiles": "O=C(Nc1cccnn1)N1CCC(=Cc2cccc(Oc3ncc4ccccc4n3)c2)CC1", "note": "[Example 105, N-pyridazin-3-yl-4-[3-(quinazolin-2-yloxy)benzylidene]piperidine-1-carboxamide]", "kinact/KI": 2530}, {"smiles": "O=C(Nc1cccnn1)N1CCC(=Cc2cccc(Oc3ccc(OCC(F)(F)F)cn3)c2)CC1", "note": "[Example 50, 4-(3-(5-(2,2,2-trifluoroethoxy)pyridin-2-yloxy)benzylidene)-N-(pyridazin-3-yl)piperidine-1-carboxamide]", "kinact/KI": 5670}, {"smiles": "Cc1ccnc(NC(=O)N2CCC(=Cc3cccc(Oc4ccc(C(F)(F)F)cn4)c3)CC2)c1", "note": "[Example 135, N-(4-methylpyridin-2-yl)-4-(3-{[5-(trifluoromethyl)pyridin-2-yl]oxy}benzylidene)piperidine-1-carboxamide]", "kinact/KI": 173}, {"smiles": "O=C(Nc1cn[nH]c1)N1CCC(=Cc2cccc(Oc3ccc(C(F)(F)F)cn3)c2)CC1", "note": "[Example 138, N-1H-pyrazol-4-yl-4-(3-{[5-(trifluoromethyl)pyridin-2-yl]oxy}benzylidene)piperidine-1-carboxamide]", "kinact/KI": 4300}, {"smiles": "O=C(Nc1cccnn1)N1CCC(=Cc2cccc(Oc3ccc(C(F)(F)F)cc3)c2)CC1", "note": "[Example 54, 4-(3-(4-(trifluoromethyl)phenoxy)benzylidene)-N-(pyridazin-3-yl)piperidine-1-carboxamide]", "kinact/KI": 12000}, {"smiles": "O=C(Nc1cccc(CO)c1)N1CCC(=Cc2cccc(Oc3ccc(C(F)(F)F)cn3)c2)CC1", "note": "[Example 82, N-[3-(hydroxymethyl)phenyl]-4-(3-{[5-(trifluoromethyl)pyridin-2-yl]oxy}benzylidene)piperidine-1-carboxamide]", "kinact/KI": 979}, {"smiles": "O=C(Nc1cccnn1)N1CCC(=Cc2cccc(Oc3ncc4cccnc4n3)c2)CC1", "note": "[Example 102, N-pyridazin-3-yl-4-[3-(pyrido[2,3-d]pyrimidin-2-yloxy)benzylidene]piperidine-1-carboxamide]", "kinact/KI": 1390}, {"smiles": "O=C(Nc1cccnc1)N1CCC(=C(Br)c2cccc(Oc3ccc(C(F)(F)F)cn3)c2)CC1", "note": "[Example 66, 4-(bromo(3-(5-(trifluoromethyl)pyridin-2-yloxy)phenyl)methylene)-N-(pyridin-3-yl)piperidine-1-carboxamide]", "kinact/KI": 1560}, {"smiles": "O=C(Nc1cccnc1)N1CCC(=Cc2cccc(Oc3ccc(F)cc3)c2)CC1", "note": "[Example 20, 4-[3-(4-fluorophenoxy)benzylidene]-N-pyridin-3-ylpiperidine-1-carboxamide]", "kinact/KI": 2380}, {"smiles": "O=C(Nc1cccnn1)N1CCC(=Cc2cccc(Oc3ccc(C(F)(F)F)nc3)c2)CC1", "note": "[Example 57, 4-(3-(6-(trifluoromethyl)pyridin-3-yloxy)benzylidene)-N-(pyridazin-3-yl)piperidine-1-carboxamide]", "kinact/KI": 16800}, {"smiles": "Cc1cccc(C(=O)NC(=O)N2CCC(=Cc3cccc(Oc4ccc(C(F)(F)F)cn4)c3)CC2)n1", "note": "[Example 16, 6-methyl-N-{[4-(3-{[5-(trifluoromethyl)pyridin-2-yl]oxy}benzylidene)piperidin-1-yl]carbonyl}pyridine-2-carboxamide]", "kinact/KI": 2150}, {"smiles": "COc1ccc(NC(=O)N2CCC(=Cc3cccc(Oc4ccc(C(F)(F)F)cn4)c3)CC2)nn1", "note": "[Example 26, N-(6-methoxypyridazin-3-yl)-4-(3-{[5-(trifluoromethyl)pyridin-2-yl]oxy}benzylidene)piperidine-1-carboxamide]", "kinact/KI": 11000}, {"smiles": "O=C(Nc1cccnn1)N1CCC(=Cc2cccc(Oc3ccc(C4CC4)cn3)c2)CC1", "note": "[Example 39, 4-(3-(5-cyclopropylpyridin-2-yloxy)benzylidene)-N-(pyridazin-3-yl)piperidine-1-carboxamide]", "kinact/KI": 18200}, {"smiles": "O=C(Nc1cccnc1)N1CCC(=Cc2cc(F)cc(Oc3ccc(C(F)(F)F)cn3)c2)CC1", "note": "[Example 65, 4-(3-fluoro-5-(5-(trifluoromethyl)pyridin-2-yloxy)benzylidene)-N-(pyridin-3-yl)piperidine-1-carboxamide]", "kinact/KI": 6710}, {"smiles": "Cc1ccnc(Oc2cccc(C=C3CCN(C(=O)Nc4cccnn4)CC3)c2)c1", "note": "[Example 73, 4-{3-[(4-methylpyridin-2-yl)oxy]benzylidene}-N-pyridazin-3-ylpiperidine-1-carboxamide]", "kinact/KI": 963}, {"smiles": "Cc1ccc(NC(=O)N2CCC(=Cc3cccc(Oc4ccc(C(F)(F)F)cc4)c3)CC2)cn1", "note": "[Example 56, 4-(3-(4-(trifluoromethyl)phenoxy)benzylidene)-N-(6-methylpyridin-3-yl)piperidine-1-carboxamide]", "kinact/KI": 3580}]}]}
